In PubChem BioAssay (NCI):
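Tested at 5 concentrations; 48 h exposure; 96-well plates; endpoints linearly interpolated, else capped at highest concentration. TGI: total growth inhibition.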

Experiments:
Test in all cases: NCI anticancer screen, dose series, 48 h
RXF 393 renal = tested on: RXF 393 renal
A549 NSCLC = tested on: A549 NSCLC
COLO 205 colon = tested on: COLO 205 colon
SNB-19 CNS = tested on: SNB-19 CNS
SK-MEL-5 melanoma = tested on: SK-MEL-5 melanoma
MOLT-4 leukemia = tested on: MOLT-4 leukemia
SF-268 CNS = tested on: SF-268 CNS
SK-MEL-2 melanoma = tested on: SK-MEL-2 melanoma
SW-620 colon = tested on: SW-620 colon
A498 renal = tested on: A498 renal
MALME-3M melanoma = tested on: MALME-3M melanoma
RPMI-8226 leukemia = tested on: RPMI-8226 leukemia
SF-295 CNS = tested on: SF-295 CNS
UO-31 renal = tested on: UO-31 renal
OVCAR-3 ovarian = tested on: OVCAR-3 ovarian
NCI-H460 lung = tested on: NCI-H460 lung

| Structure (SMILES) | TGI (RXF 393 renal) [µM] | TGI (A549 NSCLC) [µM] | TGI (COLO 205 colon) [µM] | TGI (SNB-19 CNS) [µM] | TGI (SK-MEL-5 melanoma) [µM] | TGI (MOLT-4 leukemia) [µM] | TGI (SF-268 CNS) [µM] | TGI (SK-MEL-2 melanoma) [µM] | TGI (SW-620 colon) [µM] | TGI (A498 renal) [µM] | TGI (MALME-3M melanoma) [µM] | TGI (RPMI-8226 leukemia) [µM] | TGI (SF-295 CNS) [µM] | TGI (UO-31 renal) [µM] | TGI (OVCAR-3 ovarian) [µM] | TGI (NCI-H460 lung) [µM] |
| --- | --- | --- | --- | --- | --- | --- | --- | --- | --- | --- | --- | --- | --- | --- | --- | --- |
| COc1cc(C)c(C)c(OC(=O)c2c(C)c(C)c(OC)c(C)c2OC)c1C | 39.7 | 71.8 | 15.7 | > 100 | 22.7 | 45.2 | 56.2 | 24.8 | 36 | 45.9 | 65.7 | 81.5 | 38.6 | > 100 | 7.15 | 20.4 |
| CCC1(N=[N+]=[N-])C(=O)c2ccccc2N(c2ccccc2)C1=O (configuration not stated) |  | > 100 | > 100 | > 100 | > 100 | > 100 | > 100 | > 100 | > 100 | > 100 | > 100 |  | > 100 | > 100 | > 100 | > 100 |
| CCCCCCCCCCCCn1[nH]c(C)c(C(=S)SCCCCCCCC)c1=O | > 80.9 | > 100 | > 100 | > 100 | > 100 | > 77.2 | > 100 | > 100 | > 62 | > 100 | > 100 | > 35.7 | > 100 | > 100 | > 100 | > 100 |
| CCCCNC(=O)CCN(C(=O)O)S(=O)(=O)c1ccc(NC(=O)c2ccccc2)cc1 |  | > 100 | > 100 | > 100 | > 100 | > 100 | > 100 | > 100 | 29.2 | > 100 | > 100 | > 100 | > 100 | > 100 | > 100 | > 100 |
| Cn1nc2ccc3nccc(N(CCO)CCO)c3c2n1 | > 100 | > 100 | > 100 | > 100 | > 100 | > 100 | > 100 | > 100 | > 100 | > 100 | > 100 | > 100 | > 100 | > 100 | > 100 | > 100 |
